This note sets out measurements from article PMC7614683, “A small molecule PI3Kα activator for cardioprotection and neuroregeneration” (Nature, 2023).

The subject of one assay is PI3Kα-KO A549 cells. Kind of assay: TIRF microscopy of PIP3 reporter, PI3Kα-KO A549. Format: cell-based, human. The text has this:
Generation of pooled PIK3CA-null A549 cells was outsourced to Synthego Corporation. Briefly, the PIK3CA gene was targeted with synthetic ribonucleoprotein (RNP) complexes including the following single guide RNA (sgRNA) sequence: 5’-[…]-3’. This sequence is located within PIK3CA exon 3 and covers the coding sequence preceding the p110α RAS binding domain, with the Cas9 cut site corresponding to amino acids 156/157 of p110α). In parallel, control cultures were exposed to the Cas9 protein without sgRNA, henceforth referred to as “WT cultures”. Single-cell clones were established from both WT and targeted cultures by limiting dilution, thereby ensuring seeding of maximum 1 cell per well of a 96-well plate. To promote recovery, subcloned cells in 96-wells were cultured in a 1:1 mixture of standard A549 complete medium and conditioned medium. Conditioned medium was prepared from WT cultures 2 days post-passaging by centrifuging the medium at 1000g for 10 min, followed by 0.22 μm PES filtration and storage at 4°C (-80°C for storage exceeding 2 weeks). The medium was replenished every 2-3 days, as gently as possible to prevent cells from dislodging. Once cells reached sub-confluence, they were expanded to 24-well plates and 25 cm[2] flasks, followed by genotyping and cell banking. […]

The subject of assay [1] is 133 protein kinases and 7 lipid kinases. Kind of assay: SelectScreen kinase profiling, whole panel. Format: biochemical. As to conditions: 1 μM of 1938. As for the experimental part: 133 protein kinases and 7 lipid kinases were counterscreened, with 1938 used at 1 μM, using the Adapta, Lantha and Z-LYTE assays (SelectScreen Kinase Profiling Service; Thermofisher – experimental details of these assays can be found here: https://www.thermofisher.com/uk/en/home/industrial/pharma-biopharma/drug-discovery-development/target-and-lead-identification-and-validation/kinasebiology/kinase-activity-assays.html. The tree represention in KinMap[59] generated courtesy of Cell Signaling Technology, Inc. (www.cellsignal.com). mTORC1 (mTOR/RAPTOR/LST8) protein complex and ATM kinase and substrates were produced as previously described[57],[60]. Screening of 1938 was conducted using SuperSep Phos-Tag 50 μmol/l 100 x 100 x 6.6 mm 17-well (192-18001/199-18011) gels. For ATM assays, 100 nM ATM was incubated for 30 min at 30°C with 5 μM GST-p53 and 1 mM ATP, in the absence or presence of 200 μM 1938 in ATM Kinase Buffer (50 mM HEPES pH 7.5, 100 mM NaCl, 10% glycerol, 2 mM […], 5 mM MgCl2). As a positive control for ATM activation, the same reaction was carried out with 100 nM ATM/5 μM GST-p53/1 mM ATP in the presence of 100 nM Mre11-Rad50-Nbs1 (MRN) complex, a known activator of ATM[61]. […] Gels were then stained using InstantBlue™ Coomassie, and quantified using BioRad Image Lab Software. […]

With `CCN1CCN(c2ccc(Nc3cc(Nc4cccc5c4N(C(C)=O)CC5)ccn3)cc2)CC1` [Compound 1938], in the assay with PI3Kα-KO A549 cells, the “plasma membrane PIP3 (biosensor)” value is recorded as “not seen”. In assay [1], the “effect on PI3Kβ, PI3Kγ, PI3Kδ, PI3K-C2α, Vps34, PI4Kβ, mTOR and DNA-PK” value is reported as “did not affect the activity”; the “inhibition of 13 protein kinases of the panel” value is on record as 25-50%.
